In patent US6894072B2, “Compounds as NS3-serine protease inhibitors of hepatitis C virus” (Schering Corporation, priority 2002, dated 2005):

Target: T1, HCV serine protease (Hepatitis C virus genotype 1a, UniProt P27958)
T1 construct: Spectrophotometric assay for the HCV serine protease
Test: Spectrophotometric assay for HCV protease inhibitory activity
Type: biochemical
Conditions: procedure of WO 02/08244
Experimental: Assay for HCV Protease Inhibitory Activity: Spectrophotometric Assay: Spectrophotometric assay for the HCV serine protease was performed on the inventive compounds by following the procedure described in PCT Publication No. WO 02/08244 published Jan. 31, 2002. The activity of the compounds in Table 1 is shown in the same Table.

T1 sequence (P27958 1027-1657): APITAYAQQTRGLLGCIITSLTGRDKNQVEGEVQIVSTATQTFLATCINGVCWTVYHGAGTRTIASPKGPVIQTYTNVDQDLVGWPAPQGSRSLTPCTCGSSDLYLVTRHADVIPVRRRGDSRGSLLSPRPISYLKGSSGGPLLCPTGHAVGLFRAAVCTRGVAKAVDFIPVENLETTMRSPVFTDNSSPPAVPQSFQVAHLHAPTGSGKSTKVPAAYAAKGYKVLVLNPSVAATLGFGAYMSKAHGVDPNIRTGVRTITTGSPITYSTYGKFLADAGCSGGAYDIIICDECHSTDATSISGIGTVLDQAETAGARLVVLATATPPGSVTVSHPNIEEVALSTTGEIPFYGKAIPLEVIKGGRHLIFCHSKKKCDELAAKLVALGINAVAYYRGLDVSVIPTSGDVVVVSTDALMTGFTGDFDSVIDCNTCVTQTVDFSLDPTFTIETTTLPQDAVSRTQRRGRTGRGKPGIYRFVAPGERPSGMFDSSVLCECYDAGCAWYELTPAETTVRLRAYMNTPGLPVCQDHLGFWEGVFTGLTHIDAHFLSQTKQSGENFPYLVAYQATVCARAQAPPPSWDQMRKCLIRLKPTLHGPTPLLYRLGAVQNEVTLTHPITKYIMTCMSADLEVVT
T1 sequence (P27958 1658-1711): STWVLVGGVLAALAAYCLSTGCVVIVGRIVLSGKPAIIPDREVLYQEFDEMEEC

Structure (SMILES)	Activity (binding activity)
COC(=O)[C@@H]1CCN1C(=O)C(=O)C(CC1CCC1)NC(=O)[C@@H]1C2C(CN1C(=O)[C@@H](NC(=O)OC(C)(C)C)C1CCCCC1)C2(C)C (stereo partly shown) [Entry 2]	A (Binding activity A: <5 μM)
CC(C)(C)OC(=O)N[C@H](C(=O)N1CC2C([C@H]1C(=O)NC(CC1CCC1)C(=O)C(=O)N1CCC1)C2(C)C)C1CCCCC1 (stereo partly shown) [Entry 1]	A (Binding activity A: <5 μM)
CC(C)(C)OC(=O)N[C@H](C(=O)N1CC2C([C@H]1C(=O)NC(CC1CCC1)C(=O)C(=O)N1CC[C@H]1C(=O)O)C2(C)C)C1CCCCC1 (stereo partly shown) [Entry 3]	A (Binding activity A: <5 μM)
CC(C)(C)OC(=O)N[C@H](C(=O)N1CC2C([C@H]1C(=O)NC(CC1CCC1)C(=O)C(=O)N1CC[C@H]1C(=O)OCc1ccccc1)C2(C)C)C1CCCCC1 (stereo partly shown) [Entry 4]	A (Binding activity A: <5 μM)
